The subject of data set [1] is Staphylococcus aureus. In words: Antibacterial activity against methicillin resistant Staphylococcus aureus USA400 assessed as reduction in bacterial cell growth incubated for 18 to 20 hrs by broth microdilution method. Format: functional. For orientation: In broth dilution the organism is exposed to a series of concentrations in liquid medium.
For data set [2], the system named is Staphylococcus aureus. In words: Antibacterial activity against Staphylococcus aureus NRS107 assessed as reduction in bacterial cell growth incubated for 18 to 20 hrs by broth microdilution method. It is filed as functional.
In data set [3] the test system is Staphylococcus aureus. In words: Antibacterial activity against methicillin resistant Staphylococcus aureus NRS119 assessed as reduction in bacterial cell growth incubated for 18 to 20 hrs by broth microdilution method. It is filed as functional.
Data set [4] deals with Staphylococcus aureus. In words: Antibacterial activity against vancomycin resistant Staphylococcus aureus VRS10 assessed as reduction in bacterial cell growth incubated for 18 to 20 hrs by broth microdilution method. It is filed as functional.
Data set [5] concerns Staphylococcus aureus. In words: Antibacterial activity against Staphylococcus aureus ATCC 6538 assessed as reduction in bacterial cell growth incubated for 18 to 20 hrs by broth microdilution method. It is filed as functional.
The subject of data set [6] is Staphylococcus epidermidis. Kind of data set: Antibacterial activity against methicillin resistant Staphylococcus epidermidis NRS101 assessed as reduction in bacterial cell growth incubated for 18 to 20 hrs by broth microdilution method. Format: functional.
The subject of data set [7] is Staphylococcus aureus. Kind of data set: Antibacterial activity against vancomycin resistant Staphylococcus aureus VRS12 assessed as reduction in bacterial cell growth incubated for 18 to 20 hrs by broth microdilution method. Format: functional.
Data set [8] has as its system Staphylococcus aureus. Kind of data set: Antibacterial activity against vancomycin resistant Staphylococcus aureus VRS11a assessed as reduction in bacterial cell growth incubated for 18 to 20 hrs by broth microdilution method. It is filed as functional.
Data set [9] has as its system Enterococcus faecium. Kind of data set: Antibacterial activity against vancomycin resistant Enterococcus faecium ATCC 700221 assessed as reduction in bacterial cell growth incubated for 18 to 20 hrs by broth microdilution method. It is filed as functional.
In data set [10] the test system is Listeria monocytogenes. In words: Antibacterial activity against Listeria monocytogenes ATCC 19111 assessed as reduction in bacterial cell growth incubated for 18 to 20 hrs by broth microdilution method. It is filed as functional.
Data set [11] has as its system Staphylococcus aureus. In words: Bactericidal activity against Staphylococcus aureus ATCC 6538 assessed as reduction in bacterial cell growth incubated for 18 to 20 hrs followed by re-plating on tryptic soy agar plates at 37 degC for 18 hrs by broth microdilution assay. It is filed as functional.
Data set [12] concerns Staphylococcus aureus. In words: Bactericidal activity against Staphylococcus aureus NRS107 assessed as reduction in bacterial cell growth incubated for 18 to 20 hrs followed by re-plating on tryptic soy agar plates at 37 degC for 18 hrs by broth microdilution assay. It is filed as functional.
For data set [13], the system named is Staphylococcus aureus. In words: Bactericidal activity against methicillin resistant Staphylococcus aureus NRS119 assessed as reduction in bacterial cell growth incubated for 18 to 20 hrs followed by re-plating on tryptic soy agar plates at 37 degC for 18 hrs by broth microdilution assay. Format: functional.
For data set [14], the system named is Staphylococcus aureus. Kind of data set: Bactericidal activity against methicillin-resistant Staphylococcus aureus USA300 assessed as reduction in bacterial cell growth incubated for 18 to 20 hrs followed by re-plating on tryptic soy agar plates at 37 degC for 18 hrs by broth microdilution assay. Format: functional.
For data set [15], the system named is Staphylococcus aureus. Kind of data set: Bactericidal activity against vancomycin resistant Staphylococcus aureus VRS10 assessed as reduction in bacterial cell growth incubated for 18 to 20 hrs followed by re-plating on tryptic soy agar plates at 37 degC for 18 hrs by broth microdilution assay. Format: functional.
Data set [16] concerns Staphylococcus aureus. In words: Bactericidal activity against vancomycin resistant Staphylococcus aureus VRS11a assessed as reduction in bacterial cell growth incubated for 18 to 20 hrs followed by re-plating on tryptic soy agar plates at 37 degC for 18 hrs by broth microdilution assay. It is filed as functional.
In data set [17] the test system is Staphylococcus aureus. Kind of data set: Bactericidal activity against vancomycin resistant Staphylococcus aureus VRS12 assessed as reduction in bacterial cell growth incubated for 18 to 20 hrs followed by re-plating on tryptic soy agar plates at 37 degC for 18 hrs by broth microdilution assay. It is filed as functional.
The test system of data set [18] is Staphylococcus epidermidis. In words: Bactericidal activity against methicillin resistant Staphylococcus epidermidis NRS101 assessed as reduction in bacterial cell growth incubated for 18 to 20 hrs followed by re-plating on tryptic soy agar plates at 37 degC for 18 hrs by broth microdilution assay. It is filed as functional.
For the next data set, the system named is Enterococcus faecalis. Kind of data set: Bactericidal activity against vancomycin resistant Enterococcus faecalis ATCC 51299 assessed as reduction in bacterial cell growth incubated for 18 to 20 hrs followed by re-plating on tryptic soy agar plates at 37 degC for 18 hrs by broth microdilution assay. It is filed as functional.
Data set [19] deals with Enterococcus faecium. In words: Bactericidal activity against vancomycin resistant Enterococcus faecium ATCC 700221 assessed as reduction in bacterial cell growth incubated for 18 to 20 hrs followed by re-plating on tryptic soy agar plates at 37 degC for 18 hrs by broth microdilution assay. Format: functional.
Data set [20] deals with Listeria monocytogenes. In words: Bactericidal activity against Listeria monocytogenes ATCC 19111 assessed as reduction in bacterial cell growth incubated for 18 to 20 hrs followed by re-plating on tryptic soy agar plates at 37 degC for 18 hrs by broth microdilution assay. Format: functional.
Data set [21] concerns Streptococcus pneumoniae. Kind of data set: Bactericidal activity against Cephalosporin resistant Streptococcus pneumoniae ATCC 51916 assessed as reduction in bacterial cell growth incubated for 18 to 20 hrs followed by re-plating on tryptic soy agar plates at 37 degC for 18 hrs by broth microdilution assay. It is filed as functional.
In data set [22] the test system is Streptococcus pneumoniae. In words: Bactericidal activity against Methicillin resistant Streptococcus pneumoniae ATCC 700677 assessed as reduction in bacterial cell growth incubated for 18 to 20 hrs followed by re-plating on tryptic soy agar plates at 37 degC for 18 hrs by broth microdilution assay. Format: functional.
The subject of another data set is J774. In words: Cytotoxicity against mouse J774 assessed as reduction in cell viability at 16 ug/ml incubated for 24 hrs by MTS assay. The settings on record: j774, 24 h. Format: cell-based. A general note: Formazan colour is commonly taken as a measure of viable cells.
Data set [23] can be described thus: Solubility of compound in PBS after 2 hrs by turbidity based absorbance analysis. Format: physicochemical.

≈ marks a conversion by molar mass, not a printed value. Where only a bound is given, the exact number is not on record here.

Take `C/C(=N\NC(=N)N)c1sc(-c2ccc(C#Cc3ccncc3)cc2)nc1C`: the MIC in the data set with Staphylococcus aureus [1] is more than 64 µg/mL.
Consider `C/C(=N\NC(=N)N)c1sc(-c2ccc(C#Cc3ccoc3)cc2)nc1C`, for which, in the data set with Staphylococcus aureus [1], the MIC amounted to 4 µg/mL (≈ 11 µM).
As to `CC(=O)NC[C@H]1CN(c2ccc(N3CCOCC3)c(F)c2)C(=O)O1` [LINEZOLID], the minimal inhibitory concentration (MIC) in the data set with Staphylococcus aureus [2] was 1 µg/mL (≈ 2.96 µM); in the data set with Staphylococcus aureus [1], 1 µg/mL (≈ 2.96 µM); in the data set on Staphylococcus aureus [3] it was 32 µg/mL (≈ 94.9 µM); in the data set with Staphylococcus aureus [4], 1 µg/mL (≈ 2.96 µM); in the data set on Staphylococcus aureus [5], 1 µg/mL (≈ 2.96 µM); in data set [6] it was not above 0.5 µg/mL. Besides, the MIC in the data set with Staphylococcus aureus [7] was 1 µg/mL (≈ 2.96 µM); in the data set with Staphylococcus aureus [8], 1 µg/mL (≈ 2.96 µM); with Enterococcus faecium [9] it was not above 0.5 µg/mL; in the data set with Listeria monocytogenes [10], not above 0.5 µg/mL. The MBC is 16 µg/mL (≈ 47.4 µM) with Staphylococcus aureus [11]; 16 µg/mL (≈ 47.4 µM) with Staphylococcus aureus [12]; more than 64 µg/mL in the data set on Staphylococcus aureus [13]; 32 µg/mL (≈ 94.9 µM) with Staphylococcus aureus [14]; 16 µg/mL (≈ 47.4 µM) with Staphylococcus aureus [15]; 16 µg/mL (≈ 47.4 µM) in the data set with Staphylococcus aureus [16]. The MBC in the data set on Staphylococcus aureus [17] amounted to 16 µg/mL (≈ 47.4 µM); in data set [18], 16 µg/mL (≈ 47.4 µM); in the data set on Enterococcus faecalis, 32 µg/mL (≈ 94.9 µM); in the data set on Enterococcus faecium [19], 8 µg/mL (≈ 23.7 µM); in the data set on Listeria monocytogenes [20], 32 µg/mL (≈ 94.9 µM); in the data set with Streptococcus pneumoniae [21], 16 µg/mL (≈ 47.4 µM). In the data set on Streptococcus pneumoniae [22], the MBC was determined as 32 µg/mL (≈ 94.9 µM).
`COc1ccccc1C#Cc1ccc(-c2nc(C)c(/C(C)=N/NC(=N)N)s2)cc1`: the MIC in the data set with Staphylococcus aureus [1] is 16 µg/mL (≈ 39.7 µM).
With `C/C(=N/NC(=N)N)c1ccc(C#Cc2ccc(-c3nc(C)c(/C(C)=N/NC(=N)N)s3)cc2)cc1`, the MIC with Staphylococcus aureus [1] was more than 64 µg/mL.
As to `C/C(=N\NC(=N)N)c1sc(-c2ccc(C#Cc3ccccc3)cc2)nc1C`, the Activity result in the data set with J774 is “Toxic”. The kinetic solubility at 2 h in [23] was found to be 2.5 µM (≈ 0.934 µg/mL).
`C/C(=N\NC(=N)N)c1sc(-c2ccc(C#Cc3ccc(C(=O)O)c(C)c3)cc2)nc1C`: the minimal inhibitory concentration (MIC) in the data set with Staphylococcus aureus [1] is more than 64 µg/mL.
Turning to `C/C(=N\NC(=N)N)c1sc(-c2ccc(C#Cc3cccc([N+](=O)[O-])c3)cc2)nc1C`, the MIC in the data set on Staphylococcus aureus [1] is 64 µg/mL (≈ 153 µM).
The same measure, in the same setting: the figure for `COC(=O)c1ccc(C#Cc2ccc(-c3nc(C)c(/C(C)=N/NC(=N)N)s3)cc2)c(C)c1` is more than 64 µg/mL; for `CCOC(=O)C#Cc1ccc(-c2nc(C)c(/C(C)=N/NC(=N)N)s2)cc1` it is more than 64 µg/mL.
Still for that read-out and setting: to `C/C(=N\NC(=N)N)c1sc(-c2ccc(C#Cc3ncccn3)cc2)nc1C` belongs more than 64 µg/mL.
Turning to `C/C(=N\NC(=N)N)c1sc(-c2ccc(C#Cc3ccc(C)cc3)cc2)nc1C`, in the data set on Staphylococcus aureus [1], the MIC came to 32 µg/mL (≈ 82.6 µM).
For `C/C(=N\NC(=N)N)c1sc(-c2ccc(C#Cc3ccc(C(N)=O)cc3)cc2)nc1C`, the MIC in the data set with Staphylococcus aureus [1] is more than 64 µg/mL.
On to `C/C(=N\NC(=N)N)c1sc(-c2ccc(C#Cc3ccccn3)cc2)nc1C`, for which the MIC in the data set with Staphylococcus aureus [1] amounted to 32 µg/mL (≈ 85.5 µM).
Same read-out and setting: to `COc1cccc(C#Cc2ccc(-c3nc(C)c(/C(C)=N/NC(=N)N)s3)cc2)c1` belongs 4 µg/mL (≈ 9.91 µM).

The MIC is the smallest concentration in the dilution series that meets the test's criterion for growth inhibition. Broadly, the MBC is the lowest tested concentration that kills the bacteria rather than only halting them. As usually defined, the kinetic solubility is solubility judged after dilution from a stock solution rather than from solid.

The values are drawn from ChEMBL document CHEMBL4393697, “Lipophilic efficient phenylthiazoles with potent undecaprenyl pyrophosphatase inhibitory activity” (Eur J Med Chem, 2019).
